According to PMC11672724, “Antiparasitic Activities of Acyl Hydrazones from Cinnamaldehydes and Structurally Related Fragrances” (Antibiotics, 2024):

What was measured:
macrophages = test: Macrophage cytotoxicity (MTT assay, 72 h); assay type: cell-based, BALB/c mice; details: Mus musculus, IC50 ± SD
Procedure: Plates were incubated for 24 h at 37 °C in a 5% CO2 environment to allow infection and amastigote differentiation. Infected cells were then washed with PBS and overlaid with RPMI 1640 medium containing the test compounds at the same concentrations as applied for the experiments with promastigotes, followed by incubation at 37 °C and 5% CO2 for 72 h. […] The percentage of infected macrophages was determined microscopically after fixation, Giemsa staining, and medium removal. IC50 values were calculated from three independent experiments. To assess the test compounds’ cytotoxicity, MTT assays were performed. […] Negative control cells were only given media with 2% FBS and 1% DMSO. The cells were cultured for 4 h after the supernatant was disposed of, and 50 μL of RPMI 1640 media containing 14 μL MTT (5 mg/mL) was added. After removing the supernatant once again, 150 μL of DMSO was added. IC50 values were determined from three independent experiments.

[1] = tested on: T. gondii RH strain tachyzoites; test: Toxoplasma gondii cells drug testing assay (infection index in Vero cells, 72 h); assay type: cell-based; details: for IC50: Toxoplasma gondii, Vero, IC50 ± SD, three independent experiments, 72 h; for SI = selectivity index (Vero/T. gondii): ratio IC50 Vero / IC50 T. gondii
Procedure: Cells of the Vero cell line (ATCC® CCL81™, Manassas, VA, USA) were used to cultivate T. gondii RH strain tachyzoites. Vero cells were maintained in complete RPMI 1640 medium (Thermo Fisher Scientific, Waltham, MA, USA). For cell cultivation, 96-well plates were prepared with 5 × 10^3 cells per well in 200 μL of RPMI 1640 medium, then incubated at 37 °C and 5% CO2 for 24 h. The medium was then removed, and cells were washed with phosphate-buffered saline (PBS). Next, RPMI 1640 medium with 2% FBS and parasites at a 5:1 parasite-to-cell ratio were added. After a 5 h incubation at 37 °C and 5% CO2, cells were washed with PBS and subjected to further treatments. […] After incubation at 37 °C and 5% CO2 for 72 h, cells were washed with PBS, fixed in 10% formalin, and stained with 1% toluidine blue. An inverted photomicroscope was used to assess cell infection and to determine the infection index (number of infected cells out of 200 counted cells). The inhibition percentage was calculated as follows:Inhibition (%) = [(I Control − I Experimental)/I Control] × 100 where “I Control” represents the infection index of untreated cells, and “I Experimental” represents the infection index of cells treated with test compounds. The effects of the compounds on parasite growth are expressed as IC50 values derived from three independent experiments.

Vero monkey kidney cells = test: Vero cell cytotoxicity (MTT assay, 72 h); assay type: cell-based; details: Primates, IC50 ± SD
Procedure: To assess the test compounds’ cytotoxicity, MTT assays were performed. The Vero cells and macrophages were cultivated for 24 h at 37 °C in RPMI 1640 media with 10% FBS and 5% CO2 in 96-well plates (5 × 10^3 cells/well/200 μL). Following a washing step with PBS, the cells were treated with test compounds at different concentrations (50, 25, 12.5, 6.25, 3.13, 1.65, and 0.75 μg /mL) in 10% FBS medium for 72 h. Negative control cells were only given media with 2% FBS and 1% DMSO. The cells were cultured for 4 h after the supernatant was disposed of, and 50 μL of RPMI 1640 media containing 14 μL MTT (5 mg/mL) was added. After removing the supernatant once again, 150 μL of DMSO was added. IC50 values were determined from three independent experiments.

L. major promastigotes = test: Leishmania major promastigote assay (MTT, 72 h); assay type: cell-based; details: for IC50: 72 h, IC50 ± SD, MTT
Procedure: (§1) Promastigotes of L. major were obtained from a patient (February 2016) and cultured at 26 °C in Schneider’s Drosophila medium (Invitrogen, Carlsbad, CA, USA) supplemented with 10% heat-inactivated fetal bovine serum (FBS, Invitrogen, USA) and antibiotics, with weekly transfers in a tissue culture flask. Promastigotes were cryopreserved in liquid nitrogen at a concentration of 3 × 10^6 parasites/mL. Virulent L. major parasites were maintained by serial passage in female BALB/c mice, achieved by injecting hind footpads with 1 × 10^6 stationary-phase promastigotes. Amastigotes were isolated from the mice after 8 weeks, then converted to promastigotes by cultivation at 26 °C in Schneider’s medium containing 10% FBS and antibiotics. Amastigote-derived promastigotes, which underwent several in vitro passages, were used for the infection studies. BALB/c mice (both male and female) were provided by the Pharmaceutical College, King Saud University, Kingdom of Saudi Arabia, and housed in specific pathogen-free conditions following the ethical guidelines of the Qassim University Research Ethics Committee (permission number: 20-03-20).
L. major promastigotes in the logarithmic phase were cultured in phenol-red-free RPMI 1640 medium (Invitrogen, USA) with 10% FBS in 96-well plates at 10^6 cells/mL (200 μL/well, counted with a hemocytometer). Test compounds were added at final concentrations of 50, 25, 12.5, 6.25, 3.13, 1.65, and 0.75 μg/mL. […] After incubation at 26 °C for 72 h, viable promastigotes were counted using an MTT colorimetric assay. The formed formazan was dissolved in a detergent and the absorbance was measured at 570 nm using an ELISA reader. IC50 values were derived from three independent experiments.

L. major amastigotes = test: Leishmania major amastigotes in peritoneal macrophages (percentage of infected macrophages, 72 h); assay type: cell-based; details: Macrophage, IC50 ± SD
Procedure: as §1
Activity against amastigotes in macrophages was evaluated using peritoneal macrophages, which were harvested from 6–8-week-old BALB/c mice of different sex, and plated at 5 × 10^4 cells/well in 96-well plates containing phenol-red-free RPMI 1640 medium with 10% FBS. After 4 h at 37 °C and 5% CO2 to promote adhesion, cells were washed with PBS, and 200 μL of an L. major promastigote solution (10 promastigotes per macrophage) was added. Plates were incubated for 24 h at 37 °C in a 5% CO2 environment to allow infection and amastigote differentiation. Infected cells were then washed with PBS and overlaid with RPMI 1640 medium containing the test compounds at the same concentrations as applied for the experiments with promastigotes, followed by incubation at 37 °C and 5% CO2 for 72 h. […] IC50 values were calculated from three independent experiments.

Row | Structure (SMILES) | IC50 (macrophages) | IC50 [1] | SI = selectivity index (Vero/T. gondii) [1] | IC50 (Vero monkey kidney cells) | melting point | IC50 (L. major promastigotes; Leishmania major) | IC50 (L. major amastigotes) | activity against T. gondii (in words) [1] | IC50 (L. major promastigotes) | SI (promastigotes) = selectivity index (macrophages/L. major promastigotes) (L. major promastigotes; ratio IC50 macrophages / IC50 promastigotes)
1 | CC(C)Cc1ccc(CC(C)/C=N/NC(=O)c2ccccc2O)cc1 (stereo not drawn) [Compound 3b, N′-2-Methyl-3-[4-(2-methylpropyl)phenyl]propanylidene-2-hydroxybenzoylhydrazide] | > 59.1 µM | 13.7 ± 2.2 µM | 1.8 | 24.6 ± 3.3 µM | 160 to 161 °C | > 59.1 µM | 58.6 ± 8.6 µM |  |  | 
2 | CC(C)Cc1ccc(CC(C)/C=N/NC(=O)c2ccncc2)cc1 (stereo not drawn) [Compound 3g, N′-2-Methyl-3-[4-(2-methylpropyl)phenyl]propanylidene-isonicotinoylhydrazide] | > 61.8 µM | 60.6 ± 10.1 µM |  | > 61.8 µM | 122 to 123 °C | > 61.8 µM | > 61.8 µM |  |  | 
3 | CC(C)Cc1ccc(CC(C)/C=N/NC(=O)c2ccccc2F)cc1 (stereo not drawn) [Compound 3d, N′-2-Methyl-3-[4-(2-methylpropyl)phenyl]propanylidene-2-fluorobenzoylhydrazide] | > 58.8 µM | 46.3 ± 5.5 µM | 1.2 | 56.1 ± 10.4 µM | 82 to 83 °C | > 58.8 µM | > 58.8 µM |  |  | 
4 | CN(C)c1ccc(/C=C/C=N/NC(=O)c2cccc(O)c2)cc1 [Compound 2f, (E)-N′-(4-Dimethylaminocinnamylidene)-3-hydroxybenzoylhydrazide] | > 42.7 µM | > 42.7 µM |  | 40.1 ± 6.8 µM | 257 to 258 °C | > 42.7 µM | > 42.7 µM | inactive |  | 
5 | CN(C)c1ccc(/C=C/C=N/NC(=O)c2cccc(F)c2)cc1 [Compound 2j, (E)-N′-(4-Dimethylaminocinnamylidene)-3-fluorobenzoylhydrazide] | > 42.4 µM | > 42.4 µM |  | > 42.4 µM | 208 °C | > 42.4 µM | > 42.4 µM |  |  | 
6 | CN(C)c1ccc(/C=C/C=N/NC(=O)c2ccccc2F)cc1 [Compound 2h, (E)-N′-(4-Dimethylaminocinnamylidene)-2-fluorobenzoylhydrazide] | > 64.2 µM | 55.2 ± 9.7 µM | 0.98 | 54.1 ± 9.1 µM | 205 to 206 °C | > 64.2 µM | > 64.2 µM |  |  | 
7 | O=C(N/N=C/C=C/c1ccccc1)c1cccc(O)c1 [Compound 2e, (E)-N′-(Cinnamylidene)-3-hydroxybenzoylhydrazide] | > 49.6 µM | > 49.6 µM |  | 46.2 ± 6.4 µM | 249 to 250 °C | > 49.6 µM | > 49.6 µM | inactive |  | 
8 | CN(C)c1ccc(/C=C/C=N/NC(=O)c2cccc(Cl)c2)cc1 [Compound 2k, (E)-N′-(4-Dimethylaminocinnamylidene)-3-chlorobenzoylhydrazide] | > 40.3 µM | > 40.3 µM |  | > 40.3 µM | 210 °C | > 40.3 µM | > 40.3 µM |  |  | 
9 | CC(C)c1cccc(C(C)C/C=N/NC(=O)c2cccc(O)c2)c1 (stereo not drawn) [Compound 4c, N′-3-(3-Isopropylphenyl)butanylidene-3-hydroxybenzoylhydrazide] | > 61.7 µM | > 61.7 µM |  | 29.1 ± 2.6 µM | 196 to 197 °C | > 61.7 µM | > 61.7 µM |  |  | 
10 | O=C(N/N=C/C=C/c1ccccc1)c1cccc(F)c1 [Compound 2i, (E)-N′-(Cinnamylidene)-3-fluorobenzoylhydrazide] | > 49.2 µM | 39.1 ± 6.4 µM | 1.1 | 44 ± 6.7 µM | 205 to 206 °C | > 49.2 µM | > 49.2 µM |  |  | 
11 | CC(C)Cc1ccc(CC(C)/C=N/NC(=O)c2cccc(O)c2)cc1 (stereo not drawn) [Compound 3c, N′-2-Methyl-3-[4-(2-methylpropyl)phenyl]propanylidene-3-hydroxybenzoylhydrazide] | > 59.1 µM | 55.3 ± 9.4 µM |  | > 59.1 µM | 182 to 183 °C | > 59.1 µM | > 59.1 µM |  |  | 
12 | CC(C)Cc1ccc(CC(C)/C=N/NC(=O)c2cccc(Cl)c2)cc1 (stereo not drawn) [Compound 3f, N′-2-Methyl-3-[4-(2-methylpropyl)phenyl]propanylidene-3-chlorobenzoylhydrazide] | > 56 µM | 22 ± 3.3 µM | 2.3 | 50.2 ± 7.7 µM | 88 to 89 °C | < 30 µM | > 56 µM |  | 29.1 ± 3.3 µM | >1.9
